Laboratory results reported in patent EP0183271B1, “Lysin derivative and proteinase inhibitor” (Okamoto, Shosuke, priority 1984, dated 1986).
Structures can show the parent of a compound that is named as a salt. Square brackets hold non-standard residues; d marks the D form. Peptide text beside a SMILES is read from it. * marks the point of attachment. dPhg = N[C@@H](C(=O)O)c1ccccc1; Tos = Cc1ccc(S(=O)(=O)*)cc1

Columns and labels:
Plasmin [1] = biological target: T1, Plasmin (Homo sapiens, UniProt P00747); test: biochemical; conditions: substrate S-2251
Procedure: (§1) (1) Evaluation of Antiplasmin Activity
(ii) Determination of prevention activity for S-2251 decomposition
An inhibitor sample is dissolved in a 0.05 M Tris-hydrochloric acid buffer solution (pH = 7.4) to make the total volume to 400 µl. To this solution, 50 pl of a 3 mM S-2251 solution is added and the mixture is incubated at a temperature of 37°C for 5 minutes in a constant temperature bath. Then, 50 pl of a 0.2 casein unit/ml human plasmin is added and the mixture is incubated at a temperature of 37°C for 4 minutes. Thereafter, the reaction is stopped by adding 50 µl of 50% acetic acid.
The absorbance of p-nitroaniline formed in the reaction mixture is determined at 405 nm. Thus, the concentration I50 of the inhibitor sample, at which the absorbance is one half (i.e., 1/2) of that obtained in the absence of the inhibitor, is determined.

Plasmin [2] = biological target: T1, Plasmin; test: biochemical
Procedure: as §1
(i) Determination of prevention activity for fibrin decomposition
0.18 M borate-physiological salt buffer solution (pH = 7.4) to make the total volme to 600 pl. To this buffer solution, 200 µl of a 0.2% bovin fibrinogen, 100 µl of a 0.3 cassein unit/ml human […] solution, and 100 µl of a 50 unit/ml bovine thrombin solution, all dissolved in the above-mentioned buffer, are added at a temperature of 37°C in a constant temperature bath. Then, the dissolution time of the fibrin mass formed above is determined.

bovine thrombin [3] = biological target: T2, bovine thrombin (Bos taurus, UniProt P00735); test: Antithrombin activity: prevention of S-2238 decomposition; assay type: biochemical; conditions: Table III, known compounds of Table II; substrate S-2238; *1: 0% Inhibition at the given concentration; read-out: I50 Thrombin S-2238
Procedure: (§2) (2) Evaluation of Antithrombin Activity
(ii) Determination of prevention activity for S-2238 decomposition
An inhibitor sample is dissolved in a 0.05 M Tris-hydrochloric acid buffer solution (pH = 8.3) to make a total volume to 400 µl. To this solution, 50 µl of a […] S-2238 solution is added and the mixture is incubated at a temperature of 37°C for 5 minutes in a constant temperature bath. Then, 50 µl of a 0.2 unit/ml bovine thrombin solution is added thereto and the absorbance, at 405 nm, of the p-nitroaniline formed per minute is determined at a temperature of 37°C by using the so-called initial velocity method. Thus, the concentration 150 of the inhibitor sample at which the absorbance is one half (i.e., 1/2) of that obtained in the absence of the inhibitor, is determined.

bovine thrombin [4] = biological target: T2, bovine thrombin; test: Antithrombin activity: inhibition of fibrin formation from fibrinogen (coagulation time); assay type: biochemical; conditions: Table III, known compounds of Table II; coagulation time extended twice; *1: 0% Inhibition at the given concentration; read-out: I50 Thrombin Fibrinogen
Procedure: as §2
(i) Determination of inhibition activity against fibrin formation
An inhibitor sample is dissolved in a 0.18 M borate-physiological salt buffer solution (pH = 7.4) to make the total volume to 500 µl. To this solution, 400 µl of a 0.2% bovine fibrinogen solution and 100 µl of a 4 unit/ ml bovine thrombin solution are added at a temperature of 37°C in a constant temperature bath. Thus, a coagulation time is determined. The inhibitor concentraion I50, at which the coagulation time obtained in the absence of the inhibitor is extended twice, is determined.

bovine trypsin = biological target: T3, bovine trypsin (Bos taurus, UniProt P00760); test: Antitrypsin activity: inhibition of S-2238 decomposition; assay type: biochemical; conditions: Table III, known compounds of Table II; substrate S-2238; *1: 0% Inhibition at the given concentration; read-out: I50 Trypsin S-2238
T3 sequence (P00760 24-246): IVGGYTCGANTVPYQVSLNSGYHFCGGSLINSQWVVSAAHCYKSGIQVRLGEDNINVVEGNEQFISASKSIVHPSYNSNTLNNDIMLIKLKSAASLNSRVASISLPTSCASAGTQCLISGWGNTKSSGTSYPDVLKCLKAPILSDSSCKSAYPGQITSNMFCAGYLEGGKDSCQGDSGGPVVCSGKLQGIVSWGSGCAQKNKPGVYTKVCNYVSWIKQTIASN
Procedure: (3) Evaluation of Antitrypsin Activity
Determination of inhibition activity against S-2238 decomposition
An inhibitor sample is dissolved in a 0.05 M Tris-imidazole buffer solution (pH = 8.1) and 125 µl of a 1 mM S―2238 solution is added to make the total volume to 1.20 ml. The mixture is incubated at a temperature of 37°C for 5 minutes in a constant temperature bath. To this mixture, 0.05 ml of bovine trypsin is added and the absorbance, at 405 nm, of the p-nitroaniline formed per minute is determined at a temperature of 37°C by using the so-called initial velocity method. Thus, the concentration 15° of the inhibitor sample, at which the absorbance is one half (i.e., 1/2) of that obtained in the absence of the inhibitor, is determined.

human plasma kallikrein = human plasma kallikrein (Homo sapiens, UniProt P03952); test: Anti-plasma kallikrein activity: prevention of S-2302 decomposition; assay type: biochemical; conditions: Table III, known compounds of Table II; substrate S-2302; *1: 0% Inhibition at the given concentration; read-out: I50 Plasma Kallikrein S-2302
Procedure: (4) Evaluation of Anti-Plasma Kallikrein Activity
Determination of prevention activity for S―2302 decomposition
An inhibitor sample is dissolved in a 0.05 M Tris-hydrochloric acid buffer solution (pH = 7.8) to make the total volume to 400 pl. To this solution, 50 pl of a 2 mM S-2302 solution is added and the mixture is incubated at a temperature of 37°C for 5 minutes in a constant temperature bath. Then, 50 µl of a 0.12 unit/ ml human plasma kallikrein is added and the mixture is incubated at a temperature of 37°C for 5 minutes. Thereafter, 50 pl of 50% acetic acid is added to terminate the reaction. The absorbance of the p-nitroaniline formed in the reaction mixture is measured at 405 nm. Thus, the concentration 150 of the inhibitor sample, at which the absorbance is one half (i.e., 1/2) of that obtained in the absence of the inhibitor sample, is determined.

human urokinase = human urokinase (Homo sapiens, UniProt P00749); test: Antiurokinase activity: prevention of S-2444 decomposition; assay type: biochemical; conditions: Table III, known compounds of Table II; substrate S-2444; *1: 0% Inhibition at the given concentration; read-out: I50 Urokinase S-2444
Procedure: (5) Evaluation of Antiurokinase Activity
Determination of prevention activity for S-2444 decomposition
An inhibitor sample is dissolved in a 0.05 M Tris-hydrochloric acid buffer solution (pH = 8.8) to make the total volume to 400 pl. To this solution, 50 pl of a 1 mM S―2444 solution is added and the mixture is incubated at a temperature of 37°C for 5 minutes in a constant temperature bath. Then, 50 µl of a 500 unit/ ml human urokinase is added and the mixture is incubated at a temperature of 37°C for 5 minutes. Thereafter, 50 pl of 50% acetic acid is added to terminate the reaction. The absorbance of the p-nitroaniline formed in the reaction mixture is measured at 405 nm. Thus, the concentration 150 of the inhibitor sample, at which the absorbance is one half (i.e., 1/2) of that obtained in the absence of the inhibitor, is determined.

Plasmin [5] = biological target: T1, Plasmin; test: Antiplasmin activity: prevention of fibrinogen decomposition; assay type: biochemical; conditions: Table IV, present compounds, read-out: I50 Fibrinogen
Procedure: as §1
(iii) Determination of prevention activity for fibrinogen
An inhibitor sample is dissolved in a 0.18 M borate-physiological salt buffer solution (pH = 7.4) to make the total volume to 400 µl. To this solution, 500 pl of a 0.4% bovine fibrinogen solution and 100 pl of a 1 casein unit/ml human plasmin solution, all dissolved in the above-mentioned buffer are added at a temperature of 37°C in a constant temperature bath. After the mixture is allowed to stand at a temprature of 37°C for 10 minutes, 3800 µl of the above-mentioned buffer containing (3.2 mM of tranexamic acid and 200 µl of a 50 unit/ml bovine thrombin solution are added to terminate the reaction. The mixture is incubated at a temperature of 37°C for 15 minutes to precipitate the fibrin. The fibrin mass thus precipitated is adhered to or wound around a glass rod and is then washed with water. The amount of the remaining fibrinogen is determined according to a tyrosine coloring method using a phenol reagent (see J. Biol. Chem., 73, 627 (1927). From the amount of the remaining fibrinogen thus determined, the amount of decomposed fibrinogen is calculated. Thus, the concentration 150 of the inhibitor sample, at which the amount of decomposed fibrinogen is one half (i.e., 1/2) of that obtained in the absence of the inhibitor sample, is determined.

[6] = Table III, known compounds of Table II, *1: 0% Inhibition at the given concentration, read-out: I50 Plasmin S-2251
[7] = Table IV, present compounds, plasmin, read-out: I50 S-2251
[8] = Table III, known compounds of Table II, fibrin dissolution time extended twice, *1: 0% Inhibition, *2: 19% Inhibition at the concentration, read-out: I50 Plasmin Fibrin
[9] = Table IV, present compounds, plasmin, fibrin decomposition, read-out: I50 Fibrin

human plasma kallikrein, sequence (P03952 391-638 limits assumed): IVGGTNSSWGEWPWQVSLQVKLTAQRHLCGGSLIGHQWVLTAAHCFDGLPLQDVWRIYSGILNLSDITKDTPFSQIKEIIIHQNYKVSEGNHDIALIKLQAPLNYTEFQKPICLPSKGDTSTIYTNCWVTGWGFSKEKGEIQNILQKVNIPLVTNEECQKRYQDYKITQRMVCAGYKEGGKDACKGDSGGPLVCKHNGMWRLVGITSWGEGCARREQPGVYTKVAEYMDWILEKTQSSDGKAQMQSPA
human plasma kallikrein, sequence (P03952 20-390 partner limits assumed): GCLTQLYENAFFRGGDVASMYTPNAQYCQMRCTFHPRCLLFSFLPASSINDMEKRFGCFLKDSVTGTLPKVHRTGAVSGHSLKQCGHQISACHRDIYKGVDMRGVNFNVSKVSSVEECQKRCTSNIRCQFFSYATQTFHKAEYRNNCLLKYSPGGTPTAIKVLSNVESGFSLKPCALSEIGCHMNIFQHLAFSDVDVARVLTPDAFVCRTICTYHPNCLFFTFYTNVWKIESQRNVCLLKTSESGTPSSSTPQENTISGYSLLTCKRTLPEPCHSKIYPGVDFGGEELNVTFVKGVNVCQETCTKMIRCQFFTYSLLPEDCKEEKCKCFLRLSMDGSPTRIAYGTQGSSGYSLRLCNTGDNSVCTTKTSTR
T1 sequence (P00747 581-810 limits assumed): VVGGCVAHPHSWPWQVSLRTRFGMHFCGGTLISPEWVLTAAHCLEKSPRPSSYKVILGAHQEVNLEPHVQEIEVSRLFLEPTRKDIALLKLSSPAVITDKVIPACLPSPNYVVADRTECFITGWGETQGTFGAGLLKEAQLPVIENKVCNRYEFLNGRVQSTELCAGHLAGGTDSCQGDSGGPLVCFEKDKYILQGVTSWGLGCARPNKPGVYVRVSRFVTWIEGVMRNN
T1 sequence (P00747 97-580 partner limits assumed): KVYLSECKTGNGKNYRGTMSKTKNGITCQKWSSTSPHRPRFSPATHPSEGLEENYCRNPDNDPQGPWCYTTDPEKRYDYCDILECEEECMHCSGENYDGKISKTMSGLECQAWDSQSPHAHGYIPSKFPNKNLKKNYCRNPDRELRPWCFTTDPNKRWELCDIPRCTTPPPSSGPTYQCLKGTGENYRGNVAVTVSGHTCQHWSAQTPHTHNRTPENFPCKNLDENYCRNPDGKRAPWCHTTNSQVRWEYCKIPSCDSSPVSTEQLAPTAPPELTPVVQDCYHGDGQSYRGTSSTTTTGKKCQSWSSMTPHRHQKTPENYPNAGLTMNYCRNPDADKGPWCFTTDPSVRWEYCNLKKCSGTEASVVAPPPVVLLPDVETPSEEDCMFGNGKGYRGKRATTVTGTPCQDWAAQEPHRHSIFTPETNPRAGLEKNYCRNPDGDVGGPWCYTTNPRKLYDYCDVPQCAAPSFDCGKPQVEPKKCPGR

Row | Structure (SMILES) | IC50 (Plasmin [1]; [7]) [µM] | IC50 (Plasmin [2]; [9]) [µM] | also measured
1 | NCCCC[C@H](NS(=O)(=O)c1ccccc1)C(N)=O [compound 4] | – | – | IC50 (Plasmin [1]; [6]): > 1000 µM; IC50 (Plasmin [2]; [8]): > 1000 µM; IC50 (bovine thrombin [3]): > 1000 µM; IC50 (bovine thrombin [4]): > 1000 µM; IC50 (bovine trypsin): > 150 µM; IC50 (human plasma kallikrein): > 1000 µM; IC50 (human urokinase): > 1000 µM
2 | NCCCC[C@H](NS(=O)(=O)c1cccc2ccccc12)C(=O)Nc1ccc([N+](=O)[O-])cc1 [Compound No. 10] | 1700 | 310 | –
3 | Cc1ccc(S(=O)(=O)N[C@@H](CCCCN)C(=O)Nc2ccc(C(F)(F)F)cc2)cc1 [compound 32] | 600 | 430 | –
4 | CCOC(=O)c1ccc(NC(=O)[C@H](CCCCN)NS(=O)(=O)c2ccc(C)cc2)cc1 [compound 33] | 650 | 540 | –
5 | Cc1ccc(S(=O)(=O)N[C@H](CCCCN)C(=O)Nc2ccc(C(=O)c3ccccc3)cc2)cc1 [compound 20] | 2000 | 1000 | –
6 | Cc1ccc(S(=O)(=O)N[C@@H](CCCCN)C(=O)Nc2ccc([N+](=O)[O-])cc2)cc1 [Compound No. 3, N^2-(p-toluenesulfonyl)-L-lysine p-nitroanilide hydrochloride] | 700 | 780 | IC50 (Plasmin [1]; [6]): 50000 µM; IC50 (Plasmin [5]): 900 µM
7 | CC1CCCN(C(=O)[C@H](CCCCN)NS(=O)(=O)c2cccc3c(N(C)C)cccc23)C1 (some centres unmarked) [compound 37] | 2000 | 730 | –
8 | Cc1ccc(S(=O)(=O)N[C@@H](CCCCN)C(=O)Nc2ccc(Oc3ccccc3)cc2)cc1 [compound 31] | 780 | 150 | –
9 | CCOC(=O)[C@H](NC(=O)[C@H](CCCCN)NS(=O)(=O)c1ccc(C)cc1)c1ccccc1 [compound 22] (Tos-Lys-[dPhg]-OEt) | 650 | 600 | –
10 | Cc1ccc(S(=O)(=O)N[C@@H](CCCCN)C(=O)O)cc1 [compound 5] | – | – | IC50 (Plasmin [1]; [6]): 1400 µM; IC50 (Plasmin [2]; [8]): 1000 µM

Now from value to compound, other results behind:

Row | IC50 (Plasmin [1]; [7]) [µM] | IC50 (Plasmin [2]; [9]) [µM] | Structure (SMILES) | also measured
11 | 350 | 300 | NCCCCCC(=O)N[C@@H](CCCCN)C(=O)O [Compound No. 7] | IC50 (Plasmin [1]; [6]): > 1000 µM; IC50 (Plasmin [2]; [8]): > 1000 µM; IC50 (bovine thrombin [3]): > 1000 µM; IC50 (bovine thrombin [4]): > 1000 µM; IC50 (bovine trypsin): > 200 µM; IC50 (human plasma kallikrein): > 1000 µM; IC50 (human urokinase): > 1000 µM
12 | 300 | 150 | Cc1ccc(S(=O)(=O)N[C@@H](CCCCN)C(=O)N2CCC(Cc3ccccc3)CC2)cc1 [compound 21] | –
13 | 600 | 350 | Cc1ccc(S(=O)(=O)N[C@@H](CCCCN)C(=O)Nc2cccc(Cl)c2)cc1 [compound 18] | –
14 | 130 | – | CN(C)c1cccc2c(S(=O)(=O)N[C@@H](CCCCN)C(=O)N3CCC(Cc4ccccc4)CC3)cccc12 [compound 48] | –
15 | 370 | 190 | Cc1ccc(S(=O)(=O)N[C@@H](CCCCN)C(=O)Nc2ccc(Cl)c(Cl)c2)cc1 [compound 35] | –
16 | 390 | 75 | CCOC(=O)c1cc(NC(=O)[C@H](CCCCN)NS(=O)(=O)c2cccc3ccccc23)cc(C(=O)OCC)c1 [Compound No. 11] | IC50 (Plasmin [5]): 80 µM
17 | 140 | – | Cc1ccc(S(=O)(=O)N[C@@H](CCCCN)C(=O)Nc2ccc(C(=O)c3ccccc3)cc2)cc1 [compound 36] | IC50 (Plasmin [5]): 200 µM
18 | 230 | – | Cc1ccc(S(=O)(=O)N[C@@H](CCCCN)C(=O)Nc2cc(C)nc3ccccc23)cc1 [compound 42] | –
19 | 250 | 140 | NCCCC[C@H](NC(=O)c1ccccc1)C(N)=O [Compound No. 8] | IC50 (Plasmin [1]; [6]): > 1000 µM; IC50 (Plasmin [2]; [8]): > 1000 µM; IC50 (bovine thrombin [3]): > 1000 µM; IC50 (bovine thrombin [4]): > 1000 µM; IC50 (bovine trypsin): > 300 µM; IC50 (human plasma kallikrein): > 1000 µM; IC50 (human urokinase): > 1000 µM
20 | 590 | 440 | CCOC(=O)c1c(C)cc(NC(=O)[C@H](CCCCN)NS(=O)(=O)c2ccc(C)cc2)cc1C [compound 40] | –
21 | 480 | 340 | Cc1ccc(S(=O)(=O)N[C@@H](CCCCN)C(=O)Nc2cccc(C#N)c2)cc1 [compound 29] | –
